{
  "source": "ChEMBL document CHEMBL1201862",
  "about": "“PubChem BioAssay data set” (2004)",
  "experiment_in_all_cases": "growth of human tumour cells (NCI), 48 h",
  "key": {"786-0": {"tested_on": "786-0"}, "A549": {"tested_on": "A549"}, "ACHN": {"tested_on": "ACHN"}, "CAKI-1": {"tested_on": "CAKI-1"}, "CCRF-CEM": {"tested_on": "CCRF-CEM"}, "COLO 205": {"tested_on": "COLO 205"}, "DLD-1": {"tested_on": "DLD-1"}, "DMS-114": {"tested_on": "DMS-114"}, "DMS-273": {"tested_on": "DMS-273"}, "EKVX": {"tested_on": "EKVX"}, "HCC 2998": {"tested_on": "HCC 2998"}, "HCT-116": {"tested_on": "HCT-116"}, "HCT-15": {"tested_on": "HCT-15"}, "HOP-18": {"tested_on": "HOP-18"}, "HOP-62": {"tested_on": "HOP-62"}, "HOP-92": {"tested_on": "HOP-92"}, "IGROV-1": {"tested_on": "IGROV-1"}, "K562": {"tested_on": "K562"}, "KM-20L2": {"tested_on": "KM-20L2"}, "KM12": {"tested_on": "KM12"}, "LOX IMVI": {"tested_on": "LOX IMVI"}, "LXFL 529": {"tested_on": "LXFL 529"}, "M19-MEL": {"tested_on": "M19-MEL"}, "MOLT-4": {"tested_on": "MOLT-4"}, "Malme-3M": {"tested_on": "Malme-3M"}, "NCI-H226": {"tested_on": "NCI-H226"}, "NCI-H23": {"tested_on": "NCI-H23"}, "NCI-H522": {"tested_on": "NCI-H522"}, "OVCAR-3": {"tested_on": "OVCAR-3"}, "OVCAR-4": {"tested_on": "OVCAR-4"}, "OVCAR-5": {"tested_on": "OVCAR-5"}, "OVCAR-8": {"tested_on": "OVCAR-8"}, "RPMI-8226": {"tested_on": "RPMI-8226"}, "RXF 393": {"tested_on": "RXF 393"}, "RXF 631": {"tested_on": "RXF 631"}, "SF-268": {"tested_on": "SF-268"}, "SF-295": {"tested_on": "SF-295"}, "SF-539": {"tested_on": "SF-539"}, "SK-MEL-28": {"tested_on": "SK-MEL-28"}, "SK-MEL-2": {"tested_on": "SK-MEL-2"}, "SK-MEL-5": {"tested_on": "SK-MEL-5"}, "SK-OV-3": {"tested_on": "SK-OV-3"}, "SN12C": {"tested_on": "SN12C"}, "SNB-19": {"tested_on": "SNB-19"}, "SNB-78": {"tested_on": "SNB-78"}, "SR": {"tested_on": "SR"}, "SW-620": {"tested_on": "SW-620"}, "TK-10": {"tested_on": "TK-10"}, "U-251": {"tested_on": "U-251"}, "UACC-62": {"tested_on": "UACC-62"}, "UO-31": {"tested_on": "UO-31"}, "XF498": {"tested_on": "XF498"}},
  "note": "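Values below derive from 48-hour exposures of cells grown in 96-well plates, with endpoints linearly interpolated between the two concentrations bracketing the appropriate inhibition level. GI50 marks 50% less growth.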 Calls of active or inactive are those of the source. Rule as the data show it: active = GI50 up to about 1.1 µM and inactive = higher.",
  "data": [
    {"smiles": "O=c1c(C(c2ccc([N+](=O)[O-])cc2)c2c(O)c3ccccc3n(-c3ccccc3)c2=O)c(O)c2ccccc2n1-c1ccccc1", "values": [
      {"measurement": "GI50", "setting": "786-0", "value": "11.6 µM (inactive)"},
      {"measurement": "GI50", "setting": "A549", "value": "15.5 µM (inactive)"},
      {"measurement": "GI50", "setting": "ACHN", "value": "13.9 µM (inactive)"},
      {"measurement": "GI50", "setting": "CAKI-1", "value": "44.4 µM (inactive)"},
      {"measurement": "GI50", "setting": "CCRF-CEM", "value": "1.51 µM (inactive)"},
      {"measurement": "GI50", "setting": "COLO 205", "value": "23.2 µM (inactive)"},
      {"measurement": "GI50", "setting": "DLD-1", "value": "6.41 µM (inactive)"},
      {"measurement": "GI50", "setting": "DMS-114", "value": "20.3 µM (inactive)"},
      {"measurement": "GI50", "setting": "DMS-273", "value": "22.9 µM (inactive)"},
      {"measurement": "GI50", "setting": "EKVX", "value": "24.5 µM (inactive)"},
      {"measurement": "GI50", "setting": "HCC 2998", "value": "12.4 µM (inactive)"},
      {"measurement": "GI50", "setting": "HCT-116", "value": "18.7 µM (inactive)"},
      {"measurement": "GI50", "setting": "HCT-15", "value": 10.1, "unit": "µM"},
      {"measurement": "GI50", "setting": "HOP-18", "value": "2.4 µM (inactive)"},
      {"measurement": "GI50", "setting": "HOP-62", "value": "14.5 µM (inactive)"},
      {"measurement": "GI50", "setting": "HOP-92", "value": "9.18 µM (inactive)"},
      {"measurement": "GI50", "setting": "IGROV-1", "value": "6.56 µM (inactive)"},
      {"measurement": "GI50", "setting": "K562", "value": "16.6 µM (inactive)"},
      {"measurement": "GI50", "setting": "KM-20L2", "value": "27.2 µM (inactive)"},
      {"measurement": "GI50", "setting": "KM12", "value": "17.7 µM (inactive)"},
      {"measurement": "GI50", "setting": "LOX IMVI", "value": "11.8 µM (inactive)"},
      {"measurement": "GI50", "setting": "LXFL 529", "value": "8.05 µM (inactive)"},
      {"measurement": "GI50", "setting": "M19-MEL", "value": "32.5 µM (inactive)"},
      {"measurement": "GI50", "setting": "MOLT-4", "value": "2.7 µM (inactive)"},
      {"measurement": "GI50", "setting": "Malme-3M", "value": "13 µM (inactive)"},
      {"measurement": "GI50", "setting": "NCI-H226", "value": "24.1 µM (inactive)"},
      {"measurement": "GI50", "setting": "NCI-H23", "value": "11.2 µM (inactive)"},
      {"measurement": "GI50", "setting": "NCI-H522", "value": "22.2 µM (inactive)"},
      {"measurement": "GI50", "setting": "OVCAR-3", "value": "24.1 µM (inactive)"},
      {"measurement": "GI50", "setting": "OVCAR-4", "value": "59.7 µM (inactive)"},
      {"measurement": "GI50", "setting": "OVCAR-5", "value": "51.9 µM (inactive)"},
      {"measurement": "GI50", "setting": "OVCAR-8", "value": "14.9 µM (inactive)"},
      {"measurement": "GI50", "setting": "RPMI-8226", "value": "12.2 µM (inactive)"},
      {"measurement": "GI50", "setting": "RXF 393", "value": "14.4 µM (inactive)"},
      {"measurement": "GI50", "setting": "RXF 631", "value": "14.7 µM (inactive)"},
      {"measurement": "GI50", "setting": "SF-268", "value": "15.3 µM (inactive)"},
      {"measurement": "GI50", "setting": "SF-295", "value": "12.5 µM (inactive)"},
      {"measurement": "GI50", "setting": "SF-539", "value": "12.6 µM (inactive)"},
      {"measurement": "GI50", "setting": "SK-MEL-28", "value": "16.5 µM (inactive)"},
      {"measurement": "GI50", "setting": "SK-MEL-2", "value": "14.5 µM (inactive)"},
      {"measurement": "GI50", "setting": "SK-MEL-5", "value": "11.4 µM (inactive)"},
      {"measurement": "GI50", "setting": "SK-OV-3", "value": "7.38 µM (inactive)"},
      {"measurement": "GI50", "setting": "SN12C", "value": "11.7 µM (inactive)"},
      {"measurement": "GI50", "setting": "SNB-19", "value": "7.28 µM (inactive)"},
      {"measurement": "GI50", "setting": "SNB-78", "value": "21.7 µM (inactive)"},
      {"measurement": "GI50", "setting": "SR", "value": "9.98 µM (inactive)"},
      {"measurement": "GI50", "setting": "SW-620", "value": "18.4 µM (inactive)"},
      {"measurement": "GI50", "setting": "TK-10", "value": "44 µM (inactive)"},
      {"measurement": "GI50", "setting": "U-251", "value": "10.2 µM (inactive)"},
      {"measurement": "GI50", "setting": "UACC-62", "value": "3.76 µM (inactive)"},
      {"measurement": "GI50", "setting": "UO-31", "value": "8.51 µM (inactive)"},
      {"measurement": "GI50", "setting": "XF498", "value": "19.7 µM (inactive)"}
    ]}
  ]
}
